From ChEMBL document CHEMBL1201862, “PubChem BioAssay data set” (2004)
Calls of active or inactive are those of the source.

Legend:
[1] = Luminescent dose response cell-based high throughput screening assay for inhibitors of the Janus kinase 2 mutant JAK2V617F. [Related pubchem assays: 1446 (Primary screen.), 1521 (Confirmation assay.), 1486 (Counter screen.)]; format: functional
[2] = molecular target: T1, Tyrosine-protein phosphatase non-receptor type 7 (Homo sapiens, UniProt P35236); assay: HePTP tyrosine phosphatase activity blockers – biochemical, absorbance, leukemia target, primary screen (AID 521); format: functional
T1 sequence (P35236 whole entry): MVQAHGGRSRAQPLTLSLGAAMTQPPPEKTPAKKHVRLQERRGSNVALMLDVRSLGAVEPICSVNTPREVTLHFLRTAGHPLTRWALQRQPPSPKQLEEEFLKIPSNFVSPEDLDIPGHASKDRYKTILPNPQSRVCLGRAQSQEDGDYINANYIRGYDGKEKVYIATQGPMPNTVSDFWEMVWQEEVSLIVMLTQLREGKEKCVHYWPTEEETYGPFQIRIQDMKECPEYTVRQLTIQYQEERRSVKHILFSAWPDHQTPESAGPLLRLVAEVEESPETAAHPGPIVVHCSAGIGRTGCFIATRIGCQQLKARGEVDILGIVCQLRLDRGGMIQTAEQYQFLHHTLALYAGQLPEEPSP

[3] = viability loss in HepG2 liver cells – cell-based, ATP luminescence, cherry-pick, set 6, cytotoxicity control, dose response (AID 1053125); format: functional
[4] = tested on: Streptococcus; assay: GAS UMAA2166 growth inhibition – luminescence, BacTiterGlo, counter-screen for streptokinase expression inhibitor project, dose response (AID 1915); format: functional, organism-based;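 further: potency for reduction of bacterial viability or growth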
[5] = cells; conditions: HEK293
[6] = HGIII-sPLA2 enzyme inhibition potency – biochemical, QFRET, IC50, dose response (AID 743457);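 further: green fluorescence rise as the enzyme cleaves BODIPY PC-A2 in liposomes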
[7] = cells; conditions: A549
[8] = molecular target: Galanin receptor type 2 (Homo sapiens, UniProt O43603); assay: Dose Response cell-based high-throughput screening assay to identify agonists of galanin receptor 2 (GALR2). [Related pubchem assays: 864 ]; format: functional
Chain of Galanin receptor type 2 (O43603 whole entry): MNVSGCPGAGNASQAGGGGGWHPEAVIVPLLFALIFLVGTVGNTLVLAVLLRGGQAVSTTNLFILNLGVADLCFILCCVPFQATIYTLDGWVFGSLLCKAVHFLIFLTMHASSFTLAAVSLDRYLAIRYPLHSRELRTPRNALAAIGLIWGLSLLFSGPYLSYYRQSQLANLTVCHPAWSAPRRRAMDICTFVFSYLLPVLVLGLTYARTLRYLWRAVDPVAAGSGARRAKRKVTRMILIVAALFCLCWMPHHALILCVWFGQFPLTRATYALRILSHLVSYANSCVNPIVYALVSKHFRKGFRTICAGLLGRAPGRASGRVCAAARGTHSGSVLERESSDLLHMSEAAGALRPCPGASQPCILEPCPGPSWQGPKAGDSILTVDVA

[9] = molecular target: Nonstructural protein 1 (Influenza A virus, UniProt Q194T2); format: functional, Influenza A virus (A/California/07/2009(H1N1))
Chain of Nonstructural protein 1 (Q194T2 whole entry): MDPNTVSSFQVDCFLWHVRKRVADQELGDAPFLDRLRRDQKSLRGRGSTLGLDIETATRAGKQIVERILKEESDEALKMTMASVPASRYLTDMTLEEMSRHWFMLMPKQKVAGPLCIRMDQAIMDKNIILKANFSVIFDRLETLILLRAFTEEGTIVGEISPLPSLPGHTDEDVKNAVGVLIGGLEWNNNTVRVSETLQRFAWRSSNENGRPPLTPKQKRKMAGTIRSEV

[10] = tested on: INS1; assay: INS-1E survival protection against cytokine death – cell-based, luminescence, retest, dose response (AID 449756); format: functional; conditions: Rattus norvegicus;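 further: cell death triggered by IL-1 beta plus TNF-alpha plus IFN-gamma mixture; protective hits raise ATP signal compared with cytokine alone wells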
[11] = tested on: Streptococcus sp. 'group A'; assay: Streptococcus pyogenes SK(-)GAS viability under kanamycin – luminescence, BacTiterGlo, confirmation, counter-screen for streptokinase expression inhibitor project, dose response (AID 1900); format: functional, organism-based
[12] = molecular target: Genome polyprotein (Hepatitis C virus, UniProt Q2Q167); assay: disruption of hepatitis C core self-association – biochemical, TR-FRET, dose response (AID 2159); set-up: species or system Hepacivirus hominis;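 further: blocks dimerization of HCV core protein measured by TR-FRET between tagged core106 pairs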
Chain of Genome polyprotein (Q2Q167 whole entry): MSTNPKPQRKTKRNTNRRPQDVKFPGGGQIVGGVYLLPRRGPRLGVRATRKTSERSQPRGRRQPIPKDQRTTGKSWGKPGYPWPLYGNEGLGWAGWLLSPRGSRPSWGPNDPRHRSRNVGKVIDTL

[13] = molecular target: 5-hydroxytryptamine receptor 1A (Homo sapiens, UniProt P08908); format: functional
Chain of 5-hydroxytryptamine receptor 1A (P08908 whole entry): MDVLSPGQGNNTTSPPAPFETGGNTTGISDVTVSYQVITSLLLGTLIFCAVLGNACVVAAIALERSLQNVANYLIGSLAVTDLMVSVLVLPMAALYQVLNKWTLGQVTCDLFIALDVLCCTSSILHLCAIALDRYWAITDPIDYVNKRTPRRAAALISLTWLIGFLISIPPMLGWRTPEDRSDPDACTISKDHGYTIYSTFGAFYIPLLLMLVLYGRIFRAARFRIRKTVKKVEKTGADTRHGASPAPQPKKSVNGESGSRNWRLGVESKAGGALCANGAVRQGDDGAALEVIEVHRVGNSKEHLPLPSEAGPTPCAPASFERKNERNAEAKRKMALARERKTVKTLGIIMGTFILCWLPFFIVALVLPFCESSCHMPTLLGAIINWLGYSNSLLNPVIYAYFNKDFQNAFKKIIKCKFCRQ

[14] = tested on: Vero; assay: Vero 76 cell viability after compound exposure – Vero 76 cells, synthesized analogs, cytotoxicity control for West Nile virus antiviral project, SAR follow-up (AID 2414); format: functional; conditions: Chlorocebus sabaeus
[15] = tested on: Vero; assay: Vero cell viability after compound exposure – synthesized analogs, set II, cytotoxicity control for West Nile virus antiviral project, SAR follow-up (AID 2402); format: functional; conditions: Chlorocebus sabaeus
[16] = molecular target: T2, Carboxy-terminal domain RNA polymerase II polypeptide A small phosphatase 1 (Homo sapiens, UniProt Q9GZU7); assay: CTDSP1 inhibitors, concentration-response, biochemical, absorbance readout, ultra-high-throughput screen actives (AID 540297); format: functional
T2 sequence (Q9GZU7 whole entry): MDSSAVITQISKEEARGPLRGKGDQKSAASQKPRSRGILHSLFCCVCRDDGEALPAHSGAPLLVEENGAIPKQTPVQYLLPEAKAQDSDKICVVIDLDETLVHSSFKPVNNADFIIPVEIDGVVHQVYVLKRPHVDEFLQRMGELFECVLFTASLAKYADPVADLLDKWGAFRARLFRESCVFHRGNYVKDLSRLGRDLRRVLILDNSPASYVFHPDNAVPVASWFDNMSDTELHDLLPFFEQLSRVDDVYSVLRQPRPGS

[17] = molecular target: T3, Estrogen receptor beta (Homo sapiens, UniProt Q92731); assay: blockers of SRC-3 recruitment to ERβ – biochemical, ELISA, streptavidin-HRP readout, orthogonal assay, confirmation (AID 1060)
T3 sequence (Q92731 whole entry): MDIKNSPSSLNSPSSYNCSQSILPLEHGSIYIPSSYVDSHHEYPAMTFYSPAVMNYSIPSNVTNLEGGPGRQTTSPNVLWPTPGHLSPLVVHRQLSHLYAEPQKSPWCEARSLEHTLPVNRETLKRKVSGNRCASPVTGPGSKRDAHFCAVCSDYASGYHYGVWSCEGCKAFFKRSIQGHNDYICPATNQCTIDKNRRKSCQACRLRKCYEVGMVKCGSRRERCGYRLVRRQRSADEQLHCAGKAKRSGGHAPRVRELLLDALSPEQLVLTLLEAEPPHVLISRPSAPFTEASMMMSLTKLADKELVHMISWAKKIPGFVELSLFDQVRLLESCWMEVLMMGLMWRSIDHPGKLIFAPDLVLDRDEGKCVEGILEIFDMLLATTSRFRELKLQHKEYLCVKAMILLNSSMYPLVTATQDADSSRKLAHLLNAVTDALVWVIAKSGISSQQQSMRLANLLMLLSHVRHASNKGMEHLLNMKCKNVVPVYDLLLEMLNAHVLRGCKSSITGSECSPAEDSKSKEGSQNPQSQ

[18] = molecular target: T3, Estrogen receptor beta
[19] = molecular target: T4, Corticotropin-releasing factor receptor 2/Corticotropin-releasing factor-binding protein (Homo sapiens, UniProt P24387+Q13324); assay: activators of CRF receptor 2 with binding protein – uHTS hits, confirmation (AID 602473); format: functional; conditions: read-out: EC50_Mean
T4 sequence (Q13324 whole entry): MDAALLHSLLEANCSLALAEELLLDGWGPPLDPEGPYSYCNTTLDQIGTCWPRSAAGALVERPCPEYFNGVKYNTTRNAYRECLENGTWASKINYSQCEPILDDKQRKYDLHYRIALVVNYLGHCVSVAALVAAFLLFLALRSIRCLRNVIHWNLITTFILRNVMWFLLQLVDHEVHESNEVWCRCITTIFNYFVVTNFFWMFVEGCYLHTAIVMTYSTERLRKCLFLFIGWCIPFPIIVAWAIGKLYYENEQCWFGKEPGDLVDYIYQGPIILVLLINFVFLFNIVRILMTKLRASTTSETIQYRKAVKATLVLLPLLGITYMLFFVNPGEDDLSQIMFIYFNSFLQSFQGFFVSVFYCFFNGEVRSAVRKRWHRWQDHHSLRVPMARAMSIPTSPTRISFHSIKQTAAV
T4 sequence (P24387 whole entry): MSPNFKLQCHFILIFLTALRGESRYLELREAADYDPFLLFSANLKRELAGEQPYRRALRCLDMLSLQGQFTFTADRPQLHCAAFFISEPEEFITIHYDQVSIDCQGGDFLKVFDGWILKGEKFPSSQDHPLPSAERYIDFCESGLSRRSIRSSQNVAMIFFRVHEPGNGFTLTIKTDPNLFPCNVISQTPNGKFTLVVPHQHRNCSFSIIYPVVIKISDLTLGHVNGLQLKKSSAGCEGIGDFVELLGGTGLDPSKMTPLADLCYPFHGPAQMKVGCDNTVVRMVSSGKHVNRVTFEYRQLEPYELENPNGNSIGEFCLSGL

For Oc1ccccc1OCCOc1ccccc1OCCOc1ccccc1O, the IC50 [1] was 1.48 µM (active).

For O=C(Nc1nncs1)c1c(F)c(F)c(F)c(F)c1F, the IC50 [2] was > 100 µM (not active).

For Cc1cccc2sc(NNC(=O)c3ccc(S(=O)(=O)N4CCCC(C)C4)cc3)nc12 (centres undefined), the AC50 [3] was 4.56 µM (active), the EC50 [4] was 8.56 µM (active) and the AC50 [5] was 4.7 µM (active). The IC50 [6] was 21.3 µM (inactive), the AC50 [7] was 8.96 µM (active) and the EC50 [8] was > 55.7 µM (not active). For the same compound, the IC50 [9] was > 100 µM (active), the AC50 [10] was 1.12 µM (active) and the EC50 [11] was 493 nM (active).

With Sc1nc(Cc2ccccc2)nc2ccccc12 the IC50 [12] was > 49.8 µM (not active).

In the case of c1ccc(N2CCN(Cc3cn4cccnc4n3)CC2)cc1, the EC50 [13] is reported as > 50 µM (not active).

In the case of OC1c2cc(Br)ccc2N=C2CCCCCN21 (centres undefined), the CC50 [14] is reported as 61 µM (active) and the CC50 [15] is reported as 37.6 µM (active).

With CCCc1nc2sc3ccccc3c(=O)c2c(=O)n1Cc1ccco1 the IC50 [16] was 9.92 µM (active), the IC50 [17] was 709 nM (not active) and the IC50 [18] was 11.6 µM (active). For the same compound, the EC50 [19] was 13.8 µM (active).
